According to publication PMC3279408, “A Non-Mammalian Type Opsin 5 Functions Dually in the Photoreceptive and Non-Photoreceptive Organs of Birds” (PLoS ONE, 2012):

Molecular target: T1, cOpn5L2 (Gallus gallus, UniProt B3XZF6)
T1 construct: N-terminal peptide MEEQYISKLHPVVDY, C-terminal peptide IRLSPTAKVESQGAARH (antigens)
T1 sequence (B3XZF6 1-348): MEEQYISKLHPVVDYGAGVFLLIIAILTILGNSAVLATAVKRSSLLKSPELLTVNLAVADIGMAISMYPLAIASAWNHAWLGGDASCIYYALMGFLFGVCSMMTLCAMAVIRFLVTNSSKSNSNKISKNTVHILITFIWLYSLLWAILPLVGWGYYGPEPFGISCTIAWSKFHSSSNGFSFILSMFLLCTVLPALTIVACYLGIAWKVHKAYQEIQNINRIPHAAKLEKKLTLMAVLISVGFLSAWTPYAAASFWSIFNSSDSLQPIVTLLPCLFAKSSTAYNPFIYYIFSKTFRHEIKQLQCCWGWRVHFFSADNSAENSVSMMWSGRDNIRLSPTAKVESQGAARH
Assay: absorption spectra of purified pigment, HPLC of retinal oximes, GTPgammaS binding Gi activation assay
Settings: 5 uM retinal added to cell medium, pH 6.5, spectra at 0 C

Compound | absorption spectra of purified pigment, HPLC of retinal oximes, GTPgammaS bindin (chromophore of UV-absorbing form, UV light converts it to the active all-trans form) | absorption spectra of purified pigment, HPLC of retinal oximes, GTPgammaS bindin (agonist, Gi assay in dark at pH 7.0, 0 C, retinylidene chromophore)
CC1=C(/C=C/C(C)=C/C=C\C(C)=C\C=O)C(C)(C)CCC1 [11-cis-retinal] | absorption spectrum and the light-dependent changes of cOpn5L2 reconstituted with 11-cis-retinal | 
CC1=C(/C=C/C(C)=C/C=C/C(C)=C/C=O)C(C)(C)CCC1 [all-trans-retinal] |  | all-trans-retinal most likely incorporates directly into cOpn5L2, which results in induction of basal constitutive activity
